Reference: patent publication US20150105252A1, “SUBSTITUTED PYRAZOLES AS HERBICIDES” (E I DU PONT DE NEMOURS AND COMPANY, priority 2013, published 2015)

How the values were obtained:
soybean = assay: Test C postemergence; assay type: in vivo, Glycine max; conditions: postemergence; for Plant response rating, Soybean: 250 g ai/ha, scale 0 to 100 (0 no effect, 100 complete control); for Soybean plant response rating: 125 g ai/ha, scale 0 to 100, 0 no effect, 100 complete control
In short: (§1)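 Seeds sown in loam–sand blend and treated preemergence with test chemicals in non-phytotoxic solvent with surfactant; postemergence plants in peat-based medium, treated at 2–18 cm (1- to 4-leaf stage). Greenhouse 13 to 15 days, then visual rating versus controls, 0 (no effect) to 100 (complete control).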

pigweed [1] = assay: Test C preemergence; assay type: in vivo, Amaranthus retroflexus
In short: as §1

johnsongrass = assay: Test C preemergence; assay type: in vivo, Sorghum halepense
In short: as §1

wheat = assay: Test C postemergence; assay type: in vivo, Triticum aestivum; conditions: postemergence; for Plant response rating, Wheat: 250 g ai/ha, scale 0 to 100 (0 no effect, 100 complete control); for Wheat plant response rating: scale 0 to 100
In short: as §1

blackgrass [2] = assay: Test C preemergence; assay type: in vivo, Alopecurus myosuroides; conditions: preemergence; for Plant response rating, Blackgrass: 125 g ai/ha, scale 0 to 100, 0 = no effect, 100 = complete control
In short: as §1

foxtail, giant [3] = assay: Test C postemergence; assay type: in vivo, Setaria faberii; conditions: for Plant response rating (scale of 0 to 100 where 0 is no effect and 100 is complete control), Foxtail, Giant: Postemergence, 31 g ai/ha, visually evaluated after 13 to 15 days; for Foxtail, Giant plant response rating / Plant response rating, Foxtail, Giant: postemergence; for Foxtail, Giant plant response rating: 62 g ai/ha, scale 0 to 100
In short: as §1

pigweed [4] = assay: Test A preemergence; assay type: in vivo, Amaranthus retroflexus; conditions: preemergence, 125 g ai/ha, visual injury approx. 10 days after treatment
In short: (§2)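 After sowing in a sand–loam mix, pots received compound preemergence by directed soil spray, or postemergence once plants reached the one- to two-leaf stage (2–10 cm). Formulation contained surfactant in a non-phytotoxic solvent. Injury was scored visually after ~10 greenhouse days, 0–100 scale.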

foxtail, giant [5] = assay: Test A preemergence; assay type: in vivo, Setaria faberii; conditions: preemergence; for Foxtail, Giant plant response rating (0 to 100 scale): 125 g ai/ha, visual injury approx. 10 days after treatment; for Foxtail, Giant plant response rating: 500 g ai/ha, visual injury after approx. 10 days, 0 to 100 scale (0 no effect, 100 complete control)
In short: as §2

galium = assay: Test C preemergence; assay type: in vivo, Galium aparine
In short: as §1

crabgrass, large = assay: Test A postemergence; assay type: in vivo, Digitaria sanguinalis; conditions: Postemergence
In short: as §2

blackgrass [6] = assay: Test C postemergence; assay type: in vivo, Alopecurus myosuroides; conditions: for Plant response rating (scale of 0 to 100 where 0 is no effect and 100 is complete control), Blackgrass: Postemergence, 31 g ai/ha, visually evaluated after 13 to 15 days; for Blackgrass plant response rating / Plant response rating, Blackgrass: postemergence; for Blackgrass plant response rating: 62 g ai/ha, scale 0 to 100
In short: as §1

pigweed [7] = assay: Test C postemergence; assay type: in vivo, Amaranthus retroflexus; conditions: postemergence; for Pigweed plant response rating: 62 g ai/ha, scale 0 to 100
In short: as §1

ragweed = assay: Test C postemergence; assay type: in vivo, Ambrosia elation; conditions: postemergence
In short: as §1

barnyardgrass = assay: Test C postemergence; assay type: in vivo, Echinochloa crus-galli; conditions: for Plant response rating (scale of 0 to 100 where 0 is no effect and 100 is complete control), Barnyardgrass: Postemergence, 31 g ai/ha, visually evaluated after 13 to 15 days; for Barnyardgrass plant response rating / Plant response rating, Barnyardgrass: postemergence; for Barnyardgrass plant response rating: 62 g ai/ha, scale 0 to 100
In short: as §1

corn = assay: Test A postemergence; assay type: in vivo, Zea mays; conditions: Postemergence
In short: as §2

[8] = preemergence, 31 g ai/ha, visual rating, scale 0 to 100 (0 no effect, 100 complete control), 13 to 15 days
[9] = preemergence, 62 g ai/ha, scale 0 to 100 (0 no effect, 100 complete control), 13 to 15 days
[10] = preemergence, 125 g ai/ha, 13 to 15 days, scale 0 to 100, 0 = no effect, 100 = complete control
[11] = preemergence, 250 g ai/ha, scale 0 to 100, 0 is no effect, 100 is complete control
[12] = 31 g ai/ha, visual rating, scale 0 to 100 (0 no effect, 100 complete control), 13 to 15 days
[13] = 62 g ai/ha, scale 0 to 100 (0 no effect, 100 complete control), 13 to 15 days
[14] = 250 g ai/ha, scale 0 to 100, 0 is no effect, 100 is complete control
[15] = 250 g ai/ha, scale 0 to 100 (0 no effect, 100 complete control)
[16] = 125 g ai/ha, scale 0 to 100, 0 no effect, 100 complete control
[17] = 125 g ai/ha, 0 to 100 scale, 0 no effect, 100 complete control
[18] = 500 g ai/ha, 0 to 100 scale (0 no effect, 100 complete control)
[19] = Preemergence, rate head not shown (block before 16 g ai/ha), scale 0 to 100

CCc1cc(C(=O)NCC(F)(F)F)nn1Cc1ccnc(SC(F)(F)F)c1 [Compound 214]
Plant response rating, Soybean (soybean): 95 | Soybean plant response rating (soybean): 90 | Pigweed plant response rating (pigweed [1]; [8]): 100 | Pigweed plant response rating (pigweed [1]; [9]): 100 | Plant response rating, Pigweed (pigweed [1]; [10]): 100 | Pigweed plant response rating (pigweed [1]; [11]): 100 | Johnsongrass plant response rating (johnsongrass; [8]): 0 | Johnsongrass plant response rating (johnsongrass; [9]): 40 | Plant response rating, Johnsongrass (johnsongrass; [10]): 75 | Johnsongrass plant response rating (johnsongrass; [11]): 90 | Plant response rating, Wheat (wheat): 10 | Wheat plant response rating (wheat): 5 | Blackgrass plant response rating (blackgrass [2]; [12]): 85 | Blackgrass plant response rating (blackgrass [2]; [13]): 40 | Plant response rating, Blackgrass (blackgrass [2]; 13 to 15 days): 90 | Blackgrass plant response rating (blackgrass [2]; [14]): 90 | Plant response rating (scale of 0 to 100 where 0 is no effect and 100 is complete control), Foxtail, Giant (foxtail, giant [3]): 5 | Foxtail, Giant plant response rating (foxtail, giant [3]): 5 | Plant response rating, Foxtail, Giant (foxtail, giant [3]; [15]): 20 | Plant response rating, Foxtail, Giant (foxtail, giant [3]; [16]): 15 | Pigweed plant response rating (0 to 100 scale) (pigweed [4]): 100 | Foxtail, Giant plant response rating (0 to 100 scale) (foxtail, giant [5]): 100 | Foxtail, Giant plant response rating (foxtail, giant [5]): 100 | Galium plant response rating (galium; [8]): 80 | Galium plant response rating (galium; [9]): 80 | Plant response rating, Galium (galium; [10]): 90 | Galium plant response rating (galium; [11]): 80 | Crabgrass, Large plant response rating (crabgrass, large; [17]): 100 | Crabgrass, Large plant response rating (crabgrass, large; [18]): 100 | Plant response rating (scale of 0 to 100 where 0 is no effect and 100 is complete control), Blackgrass (blackgrass [6]): 5 | Blackgrass plant response rating (blackgrass [6]): 5 | Plant response rating, Blackgrass (blackgrass [6]; [15]): 50 | Plant response rating, Blackgrass (blackgrass [6]; [16]): 10 | Pigweed plant response rating (pigweed [7]): 60 | Plant response rating, Pigweed (pigweed [7]; [15]): 85 | Plant response rating, Pigweed (pigweed [7]; [16]): 75 | Plant response rating, Ragweed (ragweed; [15]): 70 | Plant response rating, Ragweed (ragweed; [16]): 35 | Plant response rating (scale of 0 to 100 where 0 is no effect and 100 is complete control), Barnyardgrass (barnyardgrass): 5 | Barnyardgrass plant response rating (barnyardgrass): 5 | Plant response rating, Barnyardgrass (barnyardgrass; [15]): 65 | Plant response rating, Barnyardgrass (barnyardgrass; [16]): 30 | Corn plant response rating (corn; [17]): 40 | Corn plant response rating (corn; [18]): 90

CCc1cc(C(=O)NC2CC2)nn1Cc1ccnc(Br)c1 [Compound 220]
Plant response rating, Soybean (soybean): 75 | Soybean plant response rating (soybean): 30 | Plant response rating, Pigweed (pigweed [1]; [19]): 65 | Pigweed plant response rating (pigweed [1]; [9]): 100 | Plant response rating, Pigweed (pigweed [1]; [10]): 100 | Pigweed plant response rating (pigweed [1]; [11]): 100 | Plant response rating, Johnsongrass (johnsongrass; [19]): 10 | Johnsongrass plant response rating (johnsongrass; [9]): 5 | Plant response rating, Johnsongrass (johnsongrass; [10]): 5 | Johnsongrass plant response rating (johnsongrass; [11]): 80 | Plant response rating, Wheat (wheat): 5 | Wheat plant response rating (wheat): 0 | Blackgrass plant response rating (blackgrass [2]; [12]): 0 | Blackgrass plant response rating (blackgrass [2]; [13]): 0 | Plant response rating, Blackgrass (blackgrass [2]; 13 to 15 days): 40 | Blackgrass plant response rating (blackgrass [2]; [14]): 70 | Plant response rating (scale of 0 to 100 where 0 is no effect and 100 is complete control), Foxtail, Giant (foxtail, giant [3]): 0 | Foxtail, Giant plant response rating (foxtail, giant [3]): 5 | Plant response rating, Foxtail, Giant (foxtail, giant [3]; [15]): 5 | Plant response rating, Foxtail, Giant (foxtail, giant [3]; [16]): 5 | Pigweed plant response rating (0 to 100 scale) (pigweed [4]): 100 | Foxtail, Giant plant response rating (0 to 100 scale) (foxtail, giant [5]): 100 | Foxtail, Giant plant response rating (foxtail, giant [5]): 100 | Plant response rating, Galium (galium; [19]): 5 | Galium plant response rating (galium; [9]): 80 | Plant response rating, Galium (galium; [10]): 80 | Galium plant response rating (galium; [11]): 98 | Crabgrass, Large plant response rating (crabgrass, large; [17]): 90 | Crabgrass, Large plant response rating (crabgrass, large; [18]): 100 | Plant response rating (scale of 0 to 100 where 0 is no effect and 100 is complete control), Blackgrass (blackgrass [6]): 5 | Blackgrass plant response rating (blackgrass [6]): 5 | Plant response rating, Blackgrass (blackgrass [6]; [15]): 20 | Plant response rating, Blackgrass (blackgrass [6]; [16]): 5 | Pigweed plant response rating (pigweed [7]): 25 | Plant response rating, Pigweed (pigweed [7]; [15]): 60 | Plant response rating, Pigweed (pigweed [7]; [16]): 40 | Plant response rating, Ragweed (ragweed; [15]): 45 | Plant response rating, Ragweed (ragweed; [16]): 50 | Plant response rating (scale of 0 to 100 where 0 is no effect and 100 is complete control), Barnyardgrass (barnyardgrass): 0 | Barnyardgrass plant response rating (barnyardgrass): 0 | Plant response rating, Barnyardgrass (barnyardgrass; [15]): 15 | Plant response rating, Barnyardgrass (barnyardgrass; [16]): 10 | Corn plant response rating (corn; [17]): 40 | Corn plant response rating (corn; [18]): 90
